Source: patent US9951076B2, “Deuterated pentylenetetrazoles for improving cognitive function” (Balance Therapeutics, Inc., priority 2011, dated 2018)

Experiments:
[1] = Metabolic stability in human liver microsomes; type: in vitro ADME; conditions: for t1/2 increase over t1/2 of PTZ / in vitro t1/2 compared to the t1/2 of PTZ: human liver microsomes; for in vitro t1/2 compared to the t1/2 of PTZ: under the assay conditions tested; for half-life at 1 μM / microsomal CLint at 1 μM: pH 7.4, 1 mg/mL human liver microsomes, 1 μM test compound, NADPH regenerating system, 37° C., 0-45 min
Procedure: Human liver microsomes (Lot# FJM) were obtained from Celsis (Baltimore, Md.). Components of the NADPH regenerating system solution A (Lot#29850) and B (Lot#28594) were obtained from BD Gentest (Woburn, Mass.). […] All solvents and buffers were obtained from commercial sources and used without further purification.
NADPH regenerating system (1.3 mM NADP^+, 3.3 mM glucose-6-phosphate, 0.4 U/mL glucose-6-phosphate dehydrogenase, and 3.3 mM magnesium chloride) were prepared by mixing 5 volume of solution A and 1 volume of solution B and pre-warmed at 37° C. in a shaking water bath. Reactions were initiated by adding NADPH regenerating system to the incubation mixtures. After 0, 5, 10, 15, 30 and 45 min of incubation, 0.1 mL reaction mixtures were removed from the incubation plate and mixed with 0.15 mL of ice-cold acetonitrile in an appropriate well of a 96-well crash plate. The 96-well crash plate was placed on ice for 15 min, and samples were centrifuged (2,500 g, 10 min, 4° C.) to precipitate protein. The supernatants were diluted 1:1 (v/v) with water containing 0.015 μM verapamil (internal standard) in 96-well shallow injection plate, which was sealed and submitted for LC/MS or LC/MS/MS analysis utilitzing a API 150 single quadrupole mas spectrometer.
The residual compound remaining (% R) was determined from LC/MS peak areas by comparison to a zero time point. Metabolic half-life (t1/2) and intrinsic clearance (CLint) values were calculated from the slope of ln(%) plotted vs. time.

[2] = cited from earlier work
[3] = orally administered, humans; cited from earlier work

Compound: [2H]C1([2H])c2nnnn2C([2H])([2H])C([2H])([2H])C([2H])([2H])C1([2H])[2H] [Compound 1, d10-6,7,8,9-Tetrahydro-5H-tetrazolo[1,5-a]azepine]
- t1/2 increase over t1/2 of PTZ [1]: 45.1%
- in vitro t1/2 compared to the t1/2 of PTZ [1]: increased
- half-life at 1 μM [1]: 12.6 h
- microsomal CLint at 1 μM [1]: 0.9 µL/min/mg

Compound: [2H]C1([2H])CCCC([2H])([2H])n2nnnc21 [Compound 2, 6,6,10,10-d4-6,7,8,9-Tetrahydro-5H-tetrazolo[1,5-a]azepine]
- t1/2 increase over t1/2 of PTZ [1]: 6.3%
- in vitro t1/2 compared to the t1/2 of PTZ [1]: increased
- half-life at 1 μM [1]: 9.23 h
- microsomal CLint at 1 μM [1]: 1.3 µL/min/mg

Compound: [2H]C1([2H])Cc2nnnn2CC([2H])([2H])C1([2H])[2H] [Compound 3]
- t1/2 increase over t1/2 of PTZ [1]: −2.9%
- half-life at 1 μM [1]: 8.43 h
- microsomal CLint at 1 μM [1]: 1.4 µL/min/mg

Compound: [2H]C1([2H])CC([2H])([2H])c2nnnn2C([2H])([2H])C1 [Compound 4, 6,6,8,8,10,10-d6-6,7,8,9-tetrahydro-5H-tetrazolo[1,5-a]-azepine]
- t1/2 increase over t1/2 of PTZ [1]: 8.8%
- in vitro t1/2 compared to the t1/2 of PTZ [1]: increased
- half-life at 1 μM [1]: 9.45 h
- microsomal CLint at 1 μM [1]: 1.2 µL/min/mg

Compound: C1CCc2nnnn2CC1 [PTZ, pentylenetetrazole]
- half-life at 1 μM [1]: 8.68 h
- microsomal CLint at 1 μM [1]: 1.3 µL/min/mg
- time of peak concentration in blood ([2]; after intravenous (IV) or intraperitoneal (IP) delivery): ≤ 10 min
- plasma half-life ([2]; in vivo): about 60 minutes
- kindling dose [3]: approximately 20 mg/kg

Compound: C[C@]12CC[C@H]3[C@@H](CCC4=CC(=O)CC[C@@]43C)[C@@H]1CC[C@@H]2O [testosterone, reference compound]
- microsomal CLint at 1 μM [1]: 76 µL/min/mg
